Measured values from PubChem BioAssay AID372 (MTDP, 2006).
pIC50: −log10 of the molar value. The source made the active and inactive calls. No stated cut-off is given here; in the data, active means inhibition above about 50%; inactive means the rest.

target: Gag-Pol polyprotein (Human immunodeficiency virus type 1 group M subtype B (isolate HXB2)) (UniProt P04585); experiment: RNase H inhibition, HIV 1 Gag Pol polyprotein, FRET biochemical assay, screening (AID 372); settings: HIV-1 RT RNase H, FRET RNA/DNA substrate fluorescence

SMILES | pIC50 | IC50
O=S(=O)(Nc1cccc(C(F)(F)F)c1)c1ccc2ccccc2c1 | 4.60 | 
Cc1sc(NC(=O)C2CCCO2)c(C(N)=O)c1C (stereo not given) | 5.52 | 
O=C(O)C1Nc2c(Cl)cc(Cl)cc2C2C=CCC12 (stereo not given) | 4.14 | 
CCOc1ccc(N2C(=O)/C(=C/c3ccc(Br)o3)C(=O)NC2=S)cc1 | 5.68 | 
Cc1ccc(C)n1-c1ccc(Br)cc1C(=O)O | 4.49 | 
O=C1C(Cl)=CC(=NS(=O)(=O)c2ccccc2)C=C1Cl | 5.51 | 
O=C1NC(=S)N(c2ccccc2F)C(=O)/C1=C/c1ccc(I)o1 | 5.17 | 
CC(C)OC(=O)c1cc(O)c(O)c(O)c1 | 5.89 | 
Cc1cc(C)c2c(=O)[nH]c(SCC(=O)c3ccc(O)c(O)c3)nc2n1 | 5.47 | 
Cc1sc(NC(=O)c2ccc3c(c2)OCO3)c(C(N)=O)c1C |  | inactive
CC1=NN(c2ccc(S(N)(=O)=O)cc2)C(=O)/C1=C/c1ccc(-c2ccc(Cl)cc2Cl)o1 | 5.42 | 
Cc1sc(NC(=O)c2cccc([N+](=O)[O-])c2)c(C(N)=O)c1C |  | inactive
O=C1/C(=C/c2ccc(O)c(O)c2)SC(=S)N1C1CCCCC1 | 5.24 | 
O=C1NC(=S)N(c2ccccc2F)C(=O)C1=Cc1ccco1 | 5.66 | 
Cc1sc(NC(=O)C2CC3CCC2C3)c(C(N)=O)c1C (stereo not given) | 4.89 | 
N#Cc1c(N)nc(SCC(=O)c2ccc(O)c(O)c2)c(C#N)c1-c1ccc(O)cc1 | 6.05 | 
COC(=O)c1c(N)sc(C(=O)Nc2ccc(OC)cc2)c1C | 5.18 | 
O=C1C=CC(=NS(=O)(=O)c2ccc(Cl)c([N+](=O)[O-])c2)C=C1 | 5.82 | 
O=C1C=C/C(=N\S(=O)(=O)c2cc(Cl)ccc2Cl)C=C1Cl | 5.70 | 
O=C1C(Cl)=C/C(=N\S(=O)(=O)c2ccccc2)C(Cl)=C1Cl | 5.42 | 
Oc1ccc(/C=N/Nc2nncc(-c3ccccc3)n2)c(O)c1O | 5.17 | 
COc1cc(C=O)ccc1OCCCOc1cccc(Oc2ccccc2)c1 | 4.00 | 
Cc1ccc(S(=O)(=O)N=C2C=C(Cl)C(=O)C(Br)=C2)cc1 | 5.51 | 
O=C1C(Cl)=C/C(=N\S(=O)(=O)c2ccc(Cl)cc2)C(Cl)=C1Cl | 5.40 | 
Cc1cc(-c2ccco2)c(C#N)c(SCC(=O)c2ccc(O)c(O)c2)n1 | 5.85 | 
O=C(Nc1sc2c(c1C(=O)Nc1cccc3ccccc13)CCCCC2)c1ccccc1F |  | inactive
Cc1c(Cl)ccc2c1NC(C(=O)O)C1CC=CC21 (stereo not given) | 4.66 | 
Cc1sc(NC(=O)c2ccc(Br)o2)c(C(N)=O)c1C | 5.26 | 

SMILES | pIC50 | IC50
Cc1nn(CC(=O)Nc2sc(C)c(C)c2C(N)=O)c(C)c1[N+](=O)[O-] | 5.37 | 
O=C1Nc2ccc(I)cc2C1(O)N1CCOCC1 (stereo not given) | 5.20 | 
COc1ccc2c(c1)N(C(=O)CN1C(=O)c3ccccc3C1=O)C(C)(C)c1ssc(=S)c1-2 | 5.52 | 
O=C1NC(=S)N(c2ccccc2F)C(=O)/C1=C/c1ccc(OCc2cccc(C(=O)O)c2)cc1 | 5.05 | 
O=C1NC(=S)N(c2cccc(Cl)c2)C(=O)/C1=C\C=C\c1ccco1 | 5.11 | 
NC(=O)c1c(NC(=O)CCc2ccccc2)sc2c1CCCCCC2 | 5.82 | 
Cc1ccc(N2C(=O)/C(=C/c3ccc(O)c(O)c3)SC2=S)cc1C | 4.92 | 
O=C1C(Cl)=C(NC(=O)c2ccccc2)C(=O)C(Cl)=C1NC(=O)c1ccccc1 | 5.40 | 
Cc1ccc(C)n1-c1ccc(O)c(C(=O)O)c1 | 5.05 | 
O=c1[nH]c(=S)n(-c2ccccc2F)c(O)c1C=C1C=CC=N1 | 5.64 | 
O=C1c2ccccc2C(=O)N1c1ccc(-c2nc3ccc(N4C(=O)c5ccccc5C4=O)cc3[nH]2)cc1 | 5.40 | 
O=C1NC(=S)N(c2ccc(Cl)cc2)C(=O)/C1=C/c1ccc(Br)o1 | 5.77 | 
Cc1cc(C(=O)O)ccc1-n1c(C)ccc1C | 4.00 | 
Cc1ccc(-c2n[nH]c(=S)n2/N=C/c2ccc(O)c(O)c2O)cc1 | 5.74 | 
O=C(N/N=C/c1ccccc1Cl)c1cc(O)c(O)c(O)c1 | 6.22 | 
CCN1C(=O)/C(=C/c2ccoc2)C(=O)NC1=S | 4.40 | 
Nc1ccc(S(=O)(=O)O)c2cccc(O)c12 | 5.00 | 
O=C(Cc1ccccc1Cl)c1ccc(O)c(O)c1O | 5.70 | 
O=C1/C(=C\c2ccc(O)c(O)c2)SC(=S)N1c1cccc(Cl)c1 | 5.35 | 
O=c1oc2ccccc2c(O)c1/C=C1\C=Nc2ccccc21 | 5.49 | 
Cc1ccc(-n2c(/C=C/c3ccc(O)c(O)c3)nc3ccccc3c2=O)cc1 | 5.42 | 
O=C1/C(=C/c2ccco2)C(=O)N(c2ccc(Br)cc2)C(=S)N1c1ccccc1 | 4.99 | 
Cc1sc(NC(=O)Cc2ccccc2)c(C(N)=O)c1C | 5.10 | 
Cc1onc(-c2ccccc2)c1C(=O)Nc1sc(C)c(C)c1C(N)=O |  | inactive
COc1cccc2cc(C(N)=O)c(=O)oc12 | 5.40 | 
O=C1C=CC(=O)C(c2cccc(Cl)c2)=C1 | 5.64 | 
CCOc1ccc(N2C(=O)/C(=C/c3ccc(I)o3)C(=O)NC2=S)cc1 | 5.32 | 
